In PubChem BioAssay (NCI) one finds TGI and GI50 data, which are given here for 9 compounds.

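Five concentrations, 48 hours, 96-well plates. Abbreviation: GI50, concentration required for 50% inhibition of growth. The concentration for full growth arrest is given as TGI.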

Common to all, as to experiment: growth of human tumour cells (NCI), 48 h
The test system of assay [1] is A498 renal.
In assay [2] the test system is ACHN renal.
Assay [3] concerns BT-549 breast.
Assay [4] concerns CCRF-CEM leukemia.
In assay [5] the test system is COLO 205 colon.
Assay [6] concerns HCT-116 colon.
Assay [7] relates to HT29 colon.
Assay [8] concerns NCI/ADR-RES ovarian.
In assay [9] the test system is OVCAR-5 ovarian.
The test system of assay [10] is UACC-62 melanoma.

For the compound `C/C(=N/S(=O)(=O)c1ccc(Cl)c(Cl)c1)OCC(C)(C)C`, the TGI in [1], in assay [2], in assay [3], in assay [4], in assay [5] and in assay [6] was above 100 µM each time. In addition, the TGI in assay [7], in assay [8], in [9] and in [10] was above 100 µM each time.

On to `COc1ccc(/C=C/C(=O)c2cc3c(N)c(C(=O)Nc4ccccc4Cl)sc3nc2C)cc1`, for which the GI50 in assay [1] is 0.866 µM; in assay [2], 1.74 µM; in [3] it was 7.24 µM; in assay [4], 10.4 µM; in assay [5], 17.2 µM; in assay [6], 1.11 µM. For the same compound, the GI50 was 1.98 µM in [7], 1.62 µM in assay [8], above 50 µM in assay [9] and 0.391 µM in [10]. For the same compound, the TGI was 4.51 µM in assay [1]; 10.8 µM in assay [2]; 32 µM in assay [3]; above 50 µM in assay [4]; above 50 µM in assay [5]; above 50 µM in [6]. Also, the TGI is above 50 µM in assay [7], 16 µM in assay [8], above 50 µM in [9] and 8.93 µM in assay [10].

Consider `Nc1ccccc1C#C/C=C\C#Cc1ccccc1C(F)(F)F`, for which the GI50 in [1] was 2.55 µM; in assay [2] it was 0.323 µM; in assay [3], 0.699 µM; in assay [4], 17.7 µM; in [5] it was 1.92 µM; in [6], 0.432 µM. For the same compound, the GI50 in assay [7] is 3.58 µM; in [8] it was 0.302 µM; in assay [9] it was 1.15 µM; in assay [10], 0.255 µM. Moreover, the TGI in assay [1] is 16.9 µM; in assay [2] it was 15.8 µM; in assay [3], 17.3 µM; in assay [4], above 100 µM; in [5] it was above 37.2 µM; in assay [6] it was above 35.4 µM. Moreover, the TGI is above 100 µM in assay [7], 2.89 µM in [8], 10.8 µM in [9] and 3.04 µM in assay [10].

For `CC1=C([Se]CC(OC(=O)CC[Se]c2ccccc2)C(=O)NCCCCCC(=O)OCc2ccccc2)C(=O)c2ccccc2C1=O` (stereo not drawn), the GI50 in [1] was 2.25 µM; in [2] it was 3.18 µM; in [3], 2.99 µM; in [4] it was 3.61 µM; in [5] it was 2.15 µM; in assay [6] it was 2.12 µM. The GI50 in [7] was 3.65 µM; in assay [8] it was 2.36 µM; in assay [9] it was 5.39 µM; in assay [10], 1.83 µM. In addition, the TGI is 8.48 µM in [1]; 13.8 µM in assay [2]; 12.2 µM in assay [3]; above 100 µM in assay [4]; 3.93 µM in assay [5]; 6.53 µM in [6]. Further, the TGI is 12.1 µM in [7], 6.5 µM in assay [8], 20.1 µM in assay [9] and 4.39 µM in assay [10].

With `Oc1ccc(Cc2ccc(O)c3ncccc23)c2cccnc12`, the GI50 in assay [1] is 0.223 µM; in assay [2], 0.0367 µM; in assay [3], 0.0382 µM; in assay [4] it was 0.209 µM; in [5], above 100 µM; in [6], 0.0359 µM. Moreover, the GI50 in [7] was above 100 µM; in assay [8], 0.212 µM; in assay [9] it was 0.269 µM; in assay [10], 0.0408 µM. Further, the TGI in assay [1] is 0.706 µM; in [2], above 100 µM; in assay [3] it was above 100 µM; in assay [4], above 100 µM; in assay [5] it was above 100 µM; in assay [6], above 100 µM. Also, the TGI was above 100 µM in assay [7], above 100 µM in assay [8], above 100 µM in assay [9] and 0.804 µM in assay [10].

In the case of `Oc1ccc(/C=N\Nc2ccccn2)c(O)c1`, the GI50 was 1.87 µM in [1]; 0.338 µM in assay [2]; 4.87 µM in [3]; 1.01 µM in assay [4]; 5.83 µM in assay [5]; 1.7 µM in [6]. Also, the GI50 in assay [7] was 4.8 µM; in assay [8], 0.364 µM; in assay [9], 5.48 µM. The TGI was 7.17 µM in assay [1]; 2.82 µM in [2]; above 100 µM in assay [3]; 8.71 µM in [4]; above 100 µM in assay [5]; above 100 µM in assay [6]. Further, the TGI in assay [7], in assay [8] and in assay [9] was above 100 µM throughout.

Take `O=c1cccc(C#CC#C[C@H]2O[C@@H]2CO)o1`: the GI50 in assay [1] is 2.03 µM; in assay [2], 0.322 µM; in [3] it was 1.19 µM; in assay [4], 0.17 µM; in assay [5], 0.665 µM; in assay [6] it was 0.638 µM. Further, the GI50 is 0.927 µM in [8], 1.73 µM in [9] and 0.209 µM in [10]. Moreover, the TGI amounted to 4.34 µM in assay [1]; 0.985 µM in [2]; 3.02 µM in assay [3]; 0.431 µM in assay [4]; 1.58 µM in assay [5]; 3.37 µM in assay [8]. Further, the TGI was determined as 3.57 µM in [9] and 0.531 µM in [10].

On to `O=c1cc(C(F)(F)F)c2cc3c(cc2o1)NCCC3`, for which the TGI in assay [1], in assay [2], in assay [3], in assay [4], in assay [5] and in [6] was above 100 µM in each case. The TGI in assay [7], in assay [8] and in [9] was above 100 µM throughout.

On to `O=c1c2ccccc2c2ccccc2c(=O)n1-c1cc2c3ccccc3ccc2c2ccccc12`, for which the TGI in assay [1], in assay [2], in assay [3], in assay [5], in assay [6] and in [7] was above 100 µM in each case. For the same compound, the TGI in assay [8], in assay [9] and in [10] was above 100 µM each time.
